Results from patent US8921397B2, “Benzofurane-piperidine compounds” (Hoffmann-La Roche Inc., priority 2011, dated 2014).

Key:
[1] = molecular target: human 5-HT2A receptor (Homo sapiens (Human), UniProt P28223); assay: Radioligand binding ([3H]-ketanserin) to human 5-HT2A receptor, HEK293 EBNA membranes; settings: HEK293 EBNA cells expressing human 5-HT2A receptor
Summary of the method: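 Membranes from HEK293 EBNA cells transiently expressing the human receptor were incubated 1 h at RT with ~0.7 nM (D2) or 0.5 nM (D3) [3H]-spiperone, or 1.1 nM [3H]-ketanserin (5-HT2A), plus ten compound concentrations (10 μM–0.1 nM). Nonspecific binding was set with 10 μM spiperone; Ki was derived from IC50 via Cheng-Prusoff.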

[2] = molecular target: human D3 receptor (Homo sapiens (Human), UniProt P35462); assay: Radioligand binding ([3H]-spiperone) to human D3 receptor, HEK293 EBNA membranes; settings: HEK293 EBNA cells expressing human D3 receptor
Sequence of human D3 receptor (P35462 whole entry): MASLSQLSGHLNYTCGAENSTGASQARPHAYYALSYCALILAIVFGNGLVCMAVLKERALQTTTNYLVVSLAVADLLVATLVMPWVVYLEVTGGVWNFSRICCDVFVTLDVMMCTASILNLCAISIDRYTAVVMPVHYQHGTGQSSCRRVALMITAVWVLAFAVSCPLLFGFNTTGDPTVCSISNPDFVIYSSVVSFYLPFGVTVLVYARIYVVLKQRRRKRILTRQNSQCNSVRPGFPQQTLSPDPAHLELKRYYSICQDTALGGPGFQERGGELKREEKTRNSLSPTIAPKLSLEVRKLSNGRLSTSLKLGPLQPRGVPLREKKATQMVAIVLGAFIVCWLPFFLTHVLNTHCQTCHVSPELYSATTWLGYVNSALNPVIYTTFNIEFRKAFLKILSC
Summary of the method: (§1)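 Membranes from transiently transfected HEK293 EBNA cells (~7.5 μg protein/well) were incubated 1 h at RT with [3H]-spiperone (~0.7 nM for D2, 0.5 nM for D3) and ten compound concentrations (10 μM–0.1 nM) in Tris/NaCl/MgCl2/CaCl2 buffer pH 7.4. Filtration and scintillation counting, nonspecific with 10 μM spiperone; Ki via Cheng-Prusoff.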

[3] = molecular target: human D2 receptor (Homo sapiens (Human), UniProt P14416); assay: Radioligand binding ([3H]-spiperone) to human D2 receptor, HEK293 EBNA membranes; settings: HEK293 EBNA cells expressing human D2 receptor
Sequence of human D2 receptor (P14416 whole entry): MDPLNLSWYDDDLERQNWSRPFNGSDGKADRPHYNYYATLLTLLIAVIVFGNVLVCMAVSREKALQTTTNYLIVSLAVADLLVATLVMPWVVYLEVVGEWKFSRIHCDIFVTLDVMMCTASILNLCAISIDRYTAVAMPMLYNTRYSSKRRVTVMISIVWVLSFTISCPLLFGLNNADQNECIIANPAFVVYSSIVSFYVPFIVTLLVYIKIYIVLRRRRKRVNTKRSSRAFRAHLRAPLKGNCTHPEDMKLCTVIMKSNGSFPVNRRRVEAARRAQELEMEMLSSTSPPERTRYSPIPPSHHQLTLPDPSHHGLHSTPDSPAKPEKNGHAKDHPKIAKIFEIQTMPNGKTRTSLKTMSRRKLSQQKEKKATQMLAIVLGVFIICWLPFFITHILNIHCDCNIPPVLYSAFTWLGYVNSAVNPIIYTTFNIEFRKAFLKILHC
Summary of the method: as §1

Sequence of human 5-HT2A receptor (P28223 whole entry): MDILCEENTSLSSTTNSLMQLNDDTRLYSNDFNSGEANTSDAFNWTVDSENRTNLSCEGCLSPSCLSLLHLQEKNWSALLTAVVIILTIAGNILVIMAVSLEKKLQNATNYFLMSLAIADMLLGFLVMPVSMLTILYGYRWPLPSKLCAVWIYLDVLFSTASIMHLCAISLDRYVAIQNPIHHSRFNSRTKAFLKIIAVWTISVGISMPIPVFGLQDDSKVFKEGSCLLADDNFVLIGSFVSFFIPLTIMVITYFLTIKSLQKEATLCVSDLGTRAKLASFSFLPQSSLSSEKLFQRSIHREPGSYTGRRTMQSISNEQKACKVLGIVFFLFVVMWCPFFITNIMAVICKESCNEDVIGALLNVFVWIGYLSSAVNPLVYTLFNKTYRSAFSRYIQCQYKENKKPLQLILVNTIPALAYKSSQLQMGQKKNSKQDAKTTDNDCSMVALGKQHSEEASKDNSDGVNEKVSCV

SMILES	melting point [°C]	Ki [1] [nM]	Ki [2] [nM]	Ki [3] [nM]
O=C(N[C@H]1CC[C@H](CCN2CCC(c3coc4ccccc34)CC2)CC1)C1CCC(C(F)(F)F)CC1 (stereo partly drawn) [Example 79, 4-Trifluoromethyl-cyclohexanecarboxylic acid trans-{4-[2-(4-benzofuran-3-yl-piperidin-1-yl)-ethyl]-cyclohexyl}-amide]	190	11.2	6.8	73
O=C(C[C@@H](O)C(F)(F)F)N[C@H]1CC[C@H](CCN2CCC(c3coc4ccccc34)CC2)CC1 [Example 35, trans-N-{4-[2-(4-Benzofuran-3-yl-piperidin-1-yl)-ethyl]-cyclohexyl}-(R)-4,4,4-trifluoro-3-hydroxy-butyramide]	166	9.69	2.29	50.4
O=C(N[C@H]1CC[C@H](CCN2CCC(c3coc4ccccc34)CC2)CC1)C1CCCO1 (mixture of isomers) [Example 18, (RS)-Tetrahydro-furan-2-carboxylic acid trans-{4-[2-(4-benzofuran-3-yl-piperidin-1-yl)-ethyl]-cyclohexyl}-amide]	132	2.88	9.2	81.5
